Measurements from PubChem BioAssay AID248 (DTP/NCI, 2004).
Where “and” joins values, the source holds several entries; their conditions need not be identical. Equal entries are not always repeated. Inconclusive results and toxic doses are left out. Cut-off read from the data, not from the text of the source: active = T/C of 150% or more; inactive = T/C below 125%.

Test system: L1210 leukemia ip in BDF1 mice, survival T/C
Experiment: NCI In Vivo Anticancer Drug Screen. Data for tumor model L1210 Leukemia (intraperitoneal) in B6D2F1 (BDF1) mice
Details: higher = longer survival
Outline: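 Survival endpoint. Drug-treated group vs vehicle group, expressed as T divided by C. Tumor passaged by transplantation.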

[1] = endpoint: mean survival time, dose: 100.0 mg/kg/injection, schedule: Q01DX009 (ip), vehicle: saline with Tween-80
[2] = endpoint: mean survival time, dose: 100.0 mg/kg/injection, schedule: Q04DX003 (ip), vehicle: saline with Tween-80
[3] = endpoint: mean survival time, dose: 200.0 mg/kg/injection, schedule: Q01DX009 (ip), vehicle: saline with Tween-80
[4] = endpoint: mean survival time, dose: 200.0 mg/kg/injection, schedule: Q04DX003 (ip), vehicle: saline with Tween-80
[5] = endpoint: mean survival time, dose: 400.0 mg/kg/injection, schedule: Q01DX009 (ip), vehicle: saline with Tween-80
[6] = endpoint: mean survival time, dose: 400.0 mg/kg/injection, schedule: Q04DX003 (ip), vehicle: saline with Tween-80
[7] = endpoint: mean survival time, dose: 100.0 mg/kg/injection, schedule: Q01DX009 (ip), vehicle: saline
[8] = endpoint: mean survival time, dose: 100.0 mg/kg/injection, schedule: Q04DX003 (ip), vehicle: saline
[9] = endpoint: mean survival time, dose: 200.0 mg/kg/injection, schedule: Q01DX009 (ip), vehicle: saline
[10] = endpoint: mean survival time, dose: 200.0 mg/kg/injection, schedule: Q04DX003 (ip), vehicle: saline
[11] = endpoint: mean survival time, dose: 400.0 mg/kg/injection, schedule: Q01DX009 (ip), vehicle: saline
[12] = endpoint: mean survival time, dose: 400.0 mg/kg/injection, schedule: Q04DX003 (ip), vehicle: saline

Measured: T/C

Nc1nc(N)c2cc(S(=O)(=O)c3ccccc3)ccc2n1
inactive: endpoint: median survival time, dose: 25.0 mg/kg/injection, schedule: Q01DX009 (ip), vehicle: saline with Tween-80 110 % of control | endpoint: median survival time, dose: 400.0 mg/kg/injection, schedule: Q01DX009 (ip), vehicle: saline with Tween-80 108 % of control | endpoint: median survival time, dose: 800.0 mg/kg/injection, schedule: Q01DX009 (ip), vehicle: saline with Tween-80 117 % of control

CC1=Nc2c([nH]cnc2=S)NN1
inactive: endpoint: mean survival time, dose: 6.25 mg/kg/injection, schedule: Q01DX009 (ip), vehicle: saline with Tween-80 94 % of control | endpoint: mean survival time, dose: 6.25 mg/kg/injection, schedule: Q04DX003 (ip), vehicle: saline with Tween-80 102 % of control | endpoint: mean survival time, dose: 12.5 mg/kg/injection, schedule: Q01DX001 (ip), vehicle: saline with Tween-80 87 % of control | endpoint: mean survival time, dose: 12.5 mg/kg/injection, schedule: Q01DX009 (ip), vehicle: saline with Tween-80 91 % of control | endpoint: mean survival time, dose: 12.5 mg/kg/injection, schedule: Q04DX003 (ip), vehicle: saline with Tween-80 98 % of control | endpoint: mean survival time, dose: 25.0 mg/kg/injection, schedule: Q01DX001 (ip), vehicle: saline with Tween-80 102 % of control | endpoint: mean survival time, dose: 25.0 mg/kg/injection, schedule: Q04DX003 (ip), vehicle: saline with Tween-80 100 % of control

CCN(CCO)CC1C(c2ccccc2)C1c1ccccc1 (configuration not stated)
inactive: endpoint: mean survival time, dose: 12.5 mg/kg/injection, schedule: Q04DX002 (ip), vehicle: Klucel (hydroxypropylcellulose) (HPC) 93 % of control | endpoint: mean survival time, dose: 25.0 mg/kg/injection, schedule: Q04DX002 (ip), vehicle: Klucel (hydroxypropylcellulose) (HPC) 90 % of control | endpoint: mean survival time, dose: 50.0 mg/kg/injection, schedule: Q04DX002 (ip), vehicle: Klucel (hydroxypropylcellulose) (HPC) 90 % of control

N=C(N=C(N)N)N1CCOCC1
inactive: [1] 101 % of control | [2] 105 % of control | [3] 98 % of control | [4] 112 % of control | [5] 103 % of control | [6] 104 % of control

CCOC1NC(C)(C)CO1 (configuration not stated)
inactive: [7] 101 % of control | [8] 115 % of control | [9] 101 % of control | [10] 97 % of control | [11] 97 % of control | [12] 121 % of control

CCOP(=O)(CSCC)OCC
inactive: [7] 102 % of control | [8] 94 % of control | [9] 98 % of control | [10] 100 % of control | [11] 100 % of control | [12] 92 % of control

Cc1cc(NC(=O)Oc2ccccc2)ccc1S(=O)(=O)F
inactive: endpoint: mean survival time, dose: 75.0 mg/kg/injection, schedule: Q01DX001 (ip), vehicle: steriod suspending solution 102 % of control | endpoint: mean survival time, dose: 150.0 mg/kg/injection, schedule: Q01DX001 (ip), vehicle: steriod suspending solution 96 % of control | endpoint: mean survival time, dose: 300.0 mg/kg/injection, schedule: Q01DX001 (ip), vehicle: steriod suspending solution 98 % of control

Nc1cc(S(=O)(=O)O)cc2cc(S(=O)(=O)O)c(N=Nc3cc(S(=O)(=O)O)cc4cc(S(=O)(=O)O)cc(O)c34)c(O)c12
inactive: [7] 105 % of control | [8] 96 % of control | [9] 94 % of control | [10] 91 % of control | [11] 95 % of control | [12] 96 % of control

COC(=O)C1=CNC=C(C(=O)OC)C1c1ccc(C)cc1
inactive: [2] 95 % of control | [4] 93 % of control | [6] 91 % of control

CCCCCCCCC(S(=O)(=O)CC)S(=O)(=O)CC
inactive: endpoint: mean survival time, dose: 100.0 mg/kg/injection, schedule: Q01DX001 (ip), vehicle: saline 97 % of control | endpoint: mean survival time, dose: 200.0 mg/kg/injection, schedule: Q01DX001 (ip), vehicle: saline 94 % of control | endpoint: mean survival time, dose: 400.0 mg/kg/injection, schedule: Q01DX001 (ip), vehicle: saline 92 % of control

O=C(OCC1OC(OC2(COC(=O)c3ccccc3)OC(COC(=O)c3ccccc3)C(OC(=O)c3ccccc3)C2OC(=O)c2ccccc2)C(OC(=O)c2ccccc2)C(OC(=O)c2ccccc2)C1OC(=O)c1ccccc1)c1ccccc1 (configuration not stated)
inactive: [1] 95 % of control | [3] 92 % of control | [5] 92 % of control

C=C1C=C(C)N(C(C)=O)CCN1C(C)=O
inactive: [7] 95 % of control | [9] 92 % of control | [11] 90 % of control

C[CH2][Sn]([CH2]C)([O]S(=O)(=O)CC12CCC(CC1=O)C2(C)C)[O]S(=O)(=O)CC12CCC(CC1=O)C2(C)C
inactive: endpoint: mean survival time, dose: 3.12 mg/kg/injection, schedule: Q01DX009 (ip), vehicle: saline 106 % of control | endpoint: mean survival time, dose: 5.5 mg/kg/injection, schedule: Q01DX009 (ip), vehicle: saline 109 % of control | endpoint: mean survival time, dose: 6.25 mg/kg/injection, schedule: Q01DX009 (ip), vehicle: saline 106 % of control and 107 % of control | endpoint: mean survival time, dose: 6.25 mg/kg/injection, schedule: Q04DX003 (ip), vehicle: saline 112 % of control | endpoint: mean survival time, dose: 8.2 mg/kg/injection, schedule: Q01DX009 (ip), vehicle: saline 118 % of control | endpoint: mean survival time, dose: 11.0 mg/kg/injection, schedule: Q04DX003 (ip), vehicle: saline 113 % of control | endpoint: mean survival time, dose: 12.5 mg/kg/injection, schedule: Q01DX009 (ip), vehicle: saline 106 % of control and 120 % of control | endpoint: mean survival time, dose: 12.5 mg/kg/injection, schedule: Q04DX002 (ip), vehicle: saline 104 % of control | endpoint: mean survival time, dose: 12.5 mg/kg/injection, schedule: Q04DX003 (ip), vehicle: saline 114 % of control | endpoint: mean survival time, dose: 16.0 mg/kg/injection, schedule: Q04DX003 (ip), vehicle: saline 104 % of control | endpoint: mean survival time, dose: 18.0 mg/kg/injection, schedule: Q01DX009 (ip), vehicle: saline 117 % of control | endpoint: mean survival time, dose: 22.0 mg/kg/injection, schedule: Q04DX002 (ip), vehicle: saline 107 % of control | endpoint: mean survival time, dose: 25.0 mg/kg/injection, schedule: Q01DX001 (ip), vehicle: saline 109 % of control | endpoint: mean survival time, dose: 25.0 mg/kg/injection, schedule: Q01DX009 (ip), vehicle: saline 112 % of control and 115 % of control and 120 % of control | endpoint: mean survival time, dose: 25.0 mg/kg/injection, schedule: Q04DX002 (ip), vehicle: saline 106 % of control | endpoint: mean survival time, dose: 25.0 mg/kg/injection, schedule: Q04DX003 (ip), vehicle: saline 112 % of control and 117 % of control | endpoint: mean survival time, dose: 35.0 mg/kg/injection, schedule: Q04DX002 (ip), vehicle: saline 116 % of control | endpoint: mean survival time, dose: 35.0 mg/kg/injection, schedule: Q04DX003 (ip), vehicle: saline 113 % of control | endpoint: mean survival time, dose: 45.0 mg/kg/injection, schedule: Q01DX001 (ip), vehicle: saline 120 % of control | endpoint: mean survival time, dose: 50.0 mg/kg/injection, schedule: Q01DX001 (ip), vehicle: saline 114 % of control | endpoint: mean survival time, dose: 50.0 mg/kg/injection, schedule: Q04DX003 (ip), vehicle: saline 102 % of control | endpoint: mean survival time, dose: 55.0 mg/kg/injection, schedule: Q04DX003 (ip), vehicle: saline 112 % of control

O=c1cc(CN(CCO)CCO)[nH]c(=O)[nH]1
inactive: [8] 93 % of control | [10] 95 % of control | [12] 93 % of control
